Tested on: CD8+ T cells in PBMCs from patients with metastatic castrate-resistant prostate cancer
Assay: Patient PBMC restimulation assay (in vitro immunogenicity of neoantigens)
Type: cell-based, human
Details: for Immunogenic: Patient PBMC restimulation, TNFα and IFNγ production by CD8+ T cells; for Maximum fold change over negative control: TNFα+IFNγ+CD8+ T cells, highest fold change across the PBMC donors evaluated, 9 mer peptide; for Maximum frequency of TNFα^+IFNγ^+CD8^+ T cells (Percent): greatest frequency among all tested PBMC donors, negative control 0.011-0.8 depending on patient
Outline: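 PBMCs from metastatic castrate-resistant prostate cancer patients were stimulated with 9-mer neoantigen peptides (5 μg/mL final) plus IL-15 for 13 days, with IL-2 added during culture, and restimulated on day 12. Live CD3+CD8+ TNFα+/IFNγ+ frequency was measured by flow cytometry. A response was positive at ≥2-fold over the DMSO control.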

| Sequence | Immunogenic | Maximum fold change over negative control | Maximum frequency of TNFα^+IFNγ^+CD8^+ T cells (Percent) [%] |
| --- | --- | --- | --- |
| SLYHREKQLIAMDSAI [Neoantigen P22] | Yes | 5.00 | 0.120 |
| YEAGMTLGGKILFFLFLLLPLSPFSLIF [Neoantigen P87] | Yes | 3.24 | 0.120 |
| YEAGMTLGEKFRVGNCKHLKMTRP [Neoantigen P82] | Yes | 3.46 | 0.970 |
